# Measurements from PubChem BioAssay (NCI).
#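 Grown in 96-well plates, cells were treated for 48 hours with each compound at five concentrations. Insufficient inhibition: endpoint recorded as highest concentration tested. TGI: total growth inhibition.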
# Legend:
# Test in all cases: NCI-60 cell line screen, 48 h
# [1] = test system: IGROV1 ovarian
# [2] = test system: SNB-75 CNS
# [3] = test system: HOP-92 NSCLC
# [4] = test system: OVCAR-3 ovarian
# [5] = test system: OVCAR-5 ovarian
# [6] = test system: HL-60(TB) leukemia
# [7] = test system: SW-620 colon
# [8] = test system: RPMI-8226 leukemia
# [9] = test system: HCC-2998 colon
# [10] = test system: BT-549 breast
# [11] = test system: RXF 393 renal
# [12] = test system: KM12 colon
# [13] = test system: NCI/ADR-RES ovarian
# [14] = test system: OVCAR-8 ovarian
# [15] = test system: SF-539 CNS
# [16] = test system: MDA-MB-231 breast
# [17] = test system: NCI-H522 lung
# [18] = test system: A549 NSCLC
SMILES,TGI [1],TGI [2],TGI [3],TGI [4],TGI [5],TGI [6],TGI [7],TGI [8],TGI [9],TGI [10],TGI [11],TGI [12],TGI [13],TGI [14],TGI [15],TGI [16],TGI [17],TGI [18]
COC(=O)C(=O)C(C(=O)C(=O)Nc1ccc(C)cc1)c1nc2ccc(C(=O)c3ccccc3)cc2[nH]c1=O (configuration not stated),> 100 µM,> 100 µM,> 100 µM,> 100 µM,> 100 µM,> 100 µM,> 100 µM,> 100 µM,> 100 µM,> 100 µM,> 100 µM,> 100 µM,> 100 µM,> 100 µM,> 100 µM,> 100 µM,> 100 µM,> 100 µM
NC(=S)NS(=O)(=O)c1ccc(F)cc1F,> 100 µM,> 100 µM,> 100 µM,> 100 µM,> 100 µM,> 100 µM,> 100 µM,> 100 µM,> 100 µM,> 100 µM,> 100 µM,> 100 µM,> 100 µM,> 100 µM,> 100 µM,> 100 µM,> 100 µM,> 100 µM
O=C(CCOS(=O)(=O)CF)N1CCN(C(=O)CCOS(=O)(=O)CF)CC1,> 100 µM,> 56.7 µM,> 100 µM,> 100 µM,> 100 µM,29.6 µM,> 100 µM,> 46.4 µM,> 100 µM,> 100 µM,> 100 µM,> 100 µM,> 100 µM,> 100 µM,> 100 µM,> 100 µM,> 90.1 µM,> 100 µM
O=C1C(Cl)=C(N2CCN(c3ccccn3)CC2)C(=O)c2ncccc21,6.63 µM,19.8 µM,3.29 µM,3.21 µM,21.8 µM,4.79 µM,3.79 µM,5.7 µM,30.4 µM,4.63 µM,3.7 µM,12.2 µM,7.44 µM,2.77 µM,3.94 µM,3.39 µM,2.83 µM,19.5 µM
